Earlier results in patent US8101199B2, “Des-methyl-tocopherol therapy for restenosis prevention” (Celonova Biosciences, Inc., priority 2003, dated 2012).

Columns and labels:
[1] = relative to d-Alpha-Toc = 100
[2] = tested on: previously dilated artery segment; conditions: 1200 IU/day orally for 4 months after PTCA
femoral arteries = conditions: rabbit; three weeks after angioplasty; oral treatment beginning 19 d before angioplasty
[3] = tested on: rabbit vascular smooth muscle cells
native coronary vessels = conditions: addition of 200 mg for all subjects during the study
coronary restenosis = conditions: clinical trials

For Cc1c(C)c2c(c(C)c1O)CCC(C)(CCCC(C)CCCC(C)CCCC(C)C)O2 (racemic) [dl-Alpha-Tocopherol], the “Antioxidant Activity (d-Alpha-Toc = 100)” value [1] is listed as 100, the “overall incidence of restenosis defined by an abnormal angiogram or thallium test or exercise stress test” value [2] is listed as 34.6% and the “restenosis (angiographically documented)” value [2] is listed as 35.5%.

In the case of Cc1c(O)cc2c(c1C)OC(C)(CCC(=O)O)CC2 (stereo not drawn) [gamma-CEHC, 2,7,8-trimethyl-2-(beta-carboxyethyl)-6-hydroxychroman], the cyclooxygenase activity inhibition (cyclooxygenase) is listed as “inhibit cyclooxygenase activity”.

For CC(=O)Oc1c(C)c(C)c2c(c1C)CCC(C)(CCCC(C)CCCC(C)CCCC(C)C)O2 (racemic) [dl-ALpha-Tocopherol acet.], the “Antioxidant Activity (d-Alpha-Toc = 100)” value [1] is given as 0.

In the case of Cc1c(C)c2c(c(C)c1O)CC[C@@](C)(CCC[C@H](C)CCC[C@H](C)CCCC(C)C)O2 [alpha-tocopherol, Alpha-Tocopherol], the “angiographically determined minimum luminal diameter” value (femoral arteries) is listed as 1.38+/−0.29 mm, the “cross-sectional area of the intima-media” value (femoral arteries) is listed as 0.62+/−0.25 mm2 and the “DNA synthesis stimulated by oxidized low density lipoprotein” value [3] is listed as “inhibited DNA synthesis”. The “effect on restenosis rates” value (native coronary vessels) was “no effect on restenosis rates”.

For CC(=O)Oc1c(C)c(C)c2c(c1C)CC[C@@](C)(CCC[C@H](C)CCC[C@H](C)CCCC(C)C)O2 [d-Alpha-Tocopherol acet.], the “Antioxidant Activity (d-Alpha-Toc = 100)” value [1] is listed as 0.

For Cc1c(O)cc2c(c1C)O[C@](C)(CCC[C@H](C)CCC[C@H](C)CCCC(C)C)CC2 [gamma-tocopherol, Gamma-Tocopherol], the cyclooxygenase activity inhibition (cyclooxygenase) is listed as “inhibit cyclooxygenase activity”.

For Cc1cc(O)cc2c1O[C@](C)(CCC[C@H](C)CCC[C@H](C)CCCC(C)C)CC2 [d-Delta-Tocopherol], the “Antioxidant Activity (d-Alpha-Toc = 100)” value [1] is given as 300–500.

In the case of Cc1cc(O)c(C)c2c1O[C@](C)(CCC[C@H](C)CCC[C@H](C)CCCC(C)C)CC2 [d-Beta-Tocopherol], the “Antioxidant Activity (d-Alpha-Toc = 100)” value [1] is given as 130.

In the case of CC(C)(Sc1cc(C(C)(C)C)c(O)c(C(C)(C)C)c1)Sc1cc(C(C)(C)C)c(O)c(C(C)(C)C)c1 [Probucol], the “prevention of coronary restenosis after balloon angioplasty” value (coronary restenosis) is listed as “shown to prevent coronary restenosis”.

For Cc1c(O)cc2c(c1C)O[C@](C)(CCC[C@H](C)CCC[C@H](C)CCCC(C)C)CC2 [d-Gamma-Tocopherol], the “Antioxidant Activity (d-Alpha-Toc = 100)” value [1] is listed as 200.

In the case of Cc1c(C)c2c(c(C)c1O)CC[C@@](C)(CCC[C@H](C)CCC[C@H](C)CCCC(C)C)O2 [d-Alpha-Tocopherol], the “Antioxidant Activity (d-Alpha-Toc = 100)” value [1] is listed as 100.
